{"source": "paper PMC3115942", "about": "(PLoS ONE, 2011)", "key": {"[1]": {"test_system": "ciliary accumulation of Smo in Ptch−/− MEF", "test": "Immunostaining of Smo in primary cilia of Ptch−/− MEF", "type": "cell-based, mouse", "conditions": "5 µM, 24 hours", "experimental": "PTCH−/− MEF were seeded on pre-coated glass slides (1 hour coating with 0.1% Gelatin (G1393) and 0.003% Collagen (C8919) (Sigma-Aldrich) in PBS). 80% confluent cells were switched from 10% to 0.5% FBS in medium and cells were treated with DMSO or 5 µM MS-0022 for 24 hours in (n = 3) before subsequent immunofluorescent staining: Slides were fixed with 4% paraformaldehyde (Sigma-Aldrich), permeabilized for 10 min in 0.1% v/v Triton X-100 (Sigma-Aldrich) in PBS (PBT), and blocked with 10% w/v BSA (Saveen Werner) in PBT for 1 hour. Primary antibodies, mouse anti-acetylated tubulin (a-Tub) (Sigma-Aldrich (T7451), 1∶1000) goat anti-Smo (Santa Cruz Biotechnology (sc-6367), 1∶1000), and goat anti-GLI-1 (RnD systems (AF3455), 1∶500) were diluted in 0.5% w/v BSA in PBT and left on the slides over night at 4°C. Secondary antibodies donkey anti-goat IgG-Alexa 594 and donkey anti-mouse IgG-Alexa 488 (Invitrogen, both at 1∶500) were added in 0.5% w/v BSA in PBT for 1 hour. The slides were counterstained with DAPI (Roche, 1 mg/ml) in PBS. 3 random regions were imaged pr slide using a confocal LSM510 microscope (Carl Zeiss MicroImaging). The ratio of […] positive cilia was quantified manually or processed and analyzed using ImageJ to quantify the intensity of Smo and aTub for each cilium in the images (http://rsb.info.nih.goc/ij/). […]"}, "[2]": {"test_system": "Gli1 mRNA expression in Sufu−/− MEF", "test": "Real time PCR of Gli1 mRNA in Sufu−/− MEF", "type": "cell-based, mouse", "conditions": "10 µM, 72 hours", "experimental": "(§1) Cells were lysed for RNA extraction after 48 or 72 hours of treatment. Total RNA from cultured cells or tumor tissue was isolated using the GeneElute miniprep kit (Sigma-Aldritch) following the manufacturer^'s instructions. cDNA was synthesized from the isolated mRNA using the Retroscript kit (Ambion), and real-time PCR was carried out using the SYBR Green PCR master mix (Stratagene) according to the manufacturer^'s instructions with an Mx3000P cycler (Stratagene). The relative concentrations of cDNA present in each sample were calculated by the MxPro software (Stratagene), normalized for GAPDH (mRNA from cells) or GUS (mRNA from tumors). For real time PCR primer sequences see Table 6. For the tumor tissue real time PCR, previously described human and mouse specific primers against GUSB, PTCH1 and GLI1were used."}, "[3]": {"test_system": "GLI1 mRNA in PANC-1 cells", "test": "Real time PCR of GLI1 mRNA in PANC-1", "type": "cell-based, human", "conditions": "5 µM, 48 hrs", "experimental": "as §1"}, "THLE-2 cells": {"test_system": "THLE-2 cells", "test": "Passage growth assay, THLE-2", "type": "cell-based", "conditions": "5 µM", "experimental": "20,000 cells were seeded per well in 6 well plates (triplicates) with DMSO or 5 µM MS-0022. Treatment medium was changed on day 3–5, and after 5–7 days the cells were trypsinized, re-suspended in medium and counted, before reseeding cells at 20,000/well for a subsequent passage. The average growth of MS-0022 treated cells was calculated as a percentage of the growth of the DMSO control at the end of each passage. Graphs display average of percent growth with standard deviation bars (n = 3)."}, "[4]": {"test_system": "Wnt signaling in HEK293 cells", "test": "Wnt luciferase reporter assay (SuperTop-luc) in HEK293", "type": "cell-based", "conditions": "HEK293, 10 and 20 µM, 24 hours", "experimental": "Vectors were obtained from the following: GliBS-Luc reporter (gift from H. Sasaki), pBluescript (pBS) (Stratagene), FL-HA-GLI1 (Gli1) and Gli2-GFP (Gli2) (gifts from R. Toftgård), Super8XTOPFlash, and NFkB-luc (Panomics). 10 ng renilla luciferase (pRL-TK) (Promega) was used as a transfection control. HEK293 and NIH3T3 cells were seeded at 80,000 per well in 48-well plates on day 1, and were co-transfected on day 2 using a total of 0.4 µg plasmid per well mixed at 1∶3 in FUGENE6 according to manufacturer^'s instructions. On day 3, control medium and activating medium (50% L1 conditioned medium, 50% Shh conditioned medium or medium containing 10 ng/mL recombinant rcrTNF-α (R&D Systems)) +/− 10–20 µM MS-0022 were added, using DMSO as a control (the NFkB pathway inhibitor Bay11-7082 was used as a control in the NFkB assay). Samples were analyzed on day 4 or 5 using the Dual Luciferase assay kit according to manufacturer^'s instructions. Graphs display relative or fold reporter activity, and are calculated from a mean ratio of firefly reporter luminescence/pRL-TK luminescence with standard deviation error bars (n = 3). The experiments have been repeated with similar results."}, "CDK9/cyclin T1(h)": {"molecular_target": "T1, CDK9/cyclin T1(h) (Homo sapiens, UniProt P50750)", "T1 construct": "purchased Millipore (Upstate) KinaseProfiler", "T1 sequence (P50750 whole entry)": "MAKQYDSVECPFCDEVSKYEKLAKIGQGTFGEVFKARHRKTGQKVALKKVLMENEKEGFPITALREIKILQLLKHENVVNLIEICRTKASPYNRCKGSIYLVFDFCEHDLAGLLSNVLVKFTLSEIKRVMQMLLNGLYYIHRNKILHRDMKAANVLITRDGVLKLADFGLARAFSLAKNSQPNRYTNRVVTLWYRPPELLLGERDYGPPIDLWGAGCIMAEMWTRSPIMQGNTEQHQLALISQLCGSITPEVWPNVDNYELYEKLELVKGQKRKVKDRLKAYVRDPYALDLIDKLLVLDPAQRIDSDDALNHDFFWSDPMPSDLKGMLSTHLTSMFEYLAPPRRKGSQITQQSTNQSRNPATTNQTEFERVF", "T1 sequence (O60563 whole entry partner)": "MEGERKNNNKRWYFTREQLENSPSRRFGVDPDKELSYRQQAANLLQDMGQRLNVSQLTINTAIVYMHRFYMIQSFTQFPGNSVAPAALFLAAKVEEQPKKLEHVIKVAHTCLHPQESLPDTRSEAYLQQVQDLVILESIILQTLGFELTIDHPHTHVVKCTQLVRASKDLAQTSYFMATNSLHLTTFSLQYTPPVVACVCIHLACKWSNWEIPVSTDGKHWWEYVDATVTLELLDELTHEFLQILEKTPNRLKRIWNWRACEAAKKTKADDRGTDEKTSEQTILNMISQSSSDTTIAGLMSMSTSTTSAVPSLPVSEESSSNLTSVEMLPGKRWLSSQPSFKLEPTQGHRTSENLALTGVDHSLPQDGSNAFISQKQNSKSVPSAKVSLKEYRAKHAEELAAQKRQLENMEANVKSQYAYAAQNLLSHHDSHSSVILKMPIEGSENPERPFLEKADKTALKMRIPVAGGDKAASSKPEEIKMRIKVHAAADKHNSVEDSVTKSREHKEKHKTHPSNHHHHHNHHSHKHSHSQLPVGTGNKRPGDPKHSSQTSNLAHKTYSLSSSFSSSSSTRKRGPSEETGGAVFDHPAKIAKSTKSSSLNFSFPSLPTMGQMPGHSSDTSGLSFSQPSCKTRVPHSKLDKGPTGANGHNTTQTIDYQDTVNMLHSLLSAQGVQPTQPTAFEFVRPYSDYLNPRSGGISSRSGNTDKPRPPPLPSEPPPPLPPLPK", "test": "Millipore kinaseprofiler diversity array", "type": "biochemical", "conditions": "10 µM MS-0022", "experimental": "(§2) Table 4 Kinase activity in presence of 10 µM MS-0022 in a kinaseprofiler diversity array. | column: Activity %"}, "MKK7β(h)": {"molecular_target": "T2, MKK7β(h) (Homo sapiens, UniProt O14733)", "T2 construct": "purchased Millipore (Upstate) KinaseProfiler", "T2 sequence (O14733 whole entry)": "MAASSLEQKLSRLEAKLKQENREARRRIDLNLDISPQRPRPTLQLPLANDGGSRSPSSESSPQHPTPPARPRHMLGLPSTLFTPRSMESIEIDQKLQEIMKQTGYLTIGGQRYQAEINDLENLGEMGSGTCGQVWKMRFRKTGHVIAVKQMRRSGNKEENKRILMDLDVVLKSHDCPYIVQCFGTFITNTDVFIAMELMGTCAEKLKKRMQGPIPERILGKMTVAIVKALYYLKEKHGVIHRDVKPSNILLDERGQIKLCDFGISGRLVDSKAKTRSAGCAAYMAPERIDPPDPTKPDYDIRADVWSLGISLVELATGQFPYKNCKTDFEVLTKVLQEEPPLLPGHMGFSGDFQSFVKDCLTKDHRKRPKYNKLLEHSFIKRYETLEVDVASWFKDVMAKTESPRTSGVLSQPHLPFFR", "test": "Millipore kinaseprofiler diversity array", "type": "biochemical", "conditions": "10 µM MS-0022", "experimental": "as §2"}}, "data": [{"smiles": "Cc1cccn2cc(-c3ccc(NC(=O)c4ccccc4Br)cc3)nc12", "note": "[MS-0022, 2-bromo-N-(4-(8-methylimidazo[1,2-a]pyridin-2-yl)phenyl)benzamide]", "values": [{"measurement": "ciliary accumulation of Smo", "setting": "[1]", "value": "effectively blocked ciliary accumulation of Smo"}, {"measurement": "reduction of relative Gli1 mRNA levels in Sufu−/− MEFs", "setting": "[2]", "value": 50, "unit": "%"}, {"measurement": "GLI1 mRNA levels, PANC-1", "setting": "[3]", "value": "without reducing GLI1 mRNA levels"}, {"measurement": "growth by the second passage, THLE-2", "setting": "THLE-2 cells", "value": "not affected"}, {"measurement": "L1 medium induced Wnt signaling", "setting": "[4]", "value": "did not significantly block"}, {"measurement": "activity at 10 µM", "setting": "CDK9/cyclin T1(h)", "value": 98, "unit": "%"}, {"measurement": "activity at 10 µM", "setting": "MKK7β(h)", "value": 109, "unit": "%"}]}]}
